The target of one data set is Cytochrome P450 2D6 (Homo sapiens, UniProt P10635). Note: in other assays of this panel Not Active means under 50% inhibition at 10 µM.
Sequence of Cytochrome P450 2D6 (P10635 whole entry): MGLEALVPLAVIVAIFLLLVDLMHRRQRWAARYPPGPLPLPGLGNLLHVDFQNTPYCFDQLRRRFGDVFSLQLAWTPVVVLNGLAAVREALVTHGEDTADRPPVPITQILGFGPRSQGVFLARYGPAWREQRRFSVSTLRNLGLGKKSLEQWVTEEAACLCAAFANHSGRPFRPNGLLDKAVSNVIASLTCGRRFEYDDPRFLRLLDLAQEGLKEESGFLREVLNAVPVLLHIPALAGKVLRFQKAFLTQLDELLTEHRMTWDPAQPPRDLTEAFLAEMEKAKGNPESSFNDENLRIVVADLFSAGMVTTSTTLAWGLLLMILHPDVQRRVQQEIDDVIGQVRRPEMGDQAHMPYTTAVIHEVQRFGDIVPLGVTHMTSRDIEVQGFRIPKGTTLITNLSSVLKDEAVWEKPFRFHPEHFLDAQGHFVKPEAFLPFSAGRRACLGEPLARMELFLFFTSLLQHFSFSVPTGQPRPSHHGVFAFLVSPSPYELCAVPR
Test: not given
Particulars: bti-tn-5b1-4.
Sequence of Beta-3 adrenergic receptor (P13945 whole entry): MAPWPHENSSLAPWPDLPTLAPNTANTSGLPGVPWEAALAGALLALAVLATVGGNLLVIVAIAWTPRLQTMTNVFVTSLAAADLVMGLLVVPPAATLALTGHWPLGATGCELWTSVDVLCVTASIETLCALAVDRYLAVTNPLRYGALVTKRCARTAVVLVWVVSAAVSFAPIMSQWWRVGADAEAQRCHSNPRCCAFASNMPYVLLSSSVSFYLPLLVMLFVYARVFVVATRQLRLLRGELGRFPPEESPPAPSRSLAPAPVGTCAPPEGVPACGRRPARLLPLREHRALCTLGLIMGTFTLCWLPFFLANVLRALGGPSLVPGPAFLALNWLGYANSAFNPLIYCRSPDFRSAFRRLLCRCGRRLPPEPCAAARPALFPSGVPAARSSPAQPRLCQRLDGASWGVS
Sequence of Cytochrome P450 2E1 (P05181 whole entry): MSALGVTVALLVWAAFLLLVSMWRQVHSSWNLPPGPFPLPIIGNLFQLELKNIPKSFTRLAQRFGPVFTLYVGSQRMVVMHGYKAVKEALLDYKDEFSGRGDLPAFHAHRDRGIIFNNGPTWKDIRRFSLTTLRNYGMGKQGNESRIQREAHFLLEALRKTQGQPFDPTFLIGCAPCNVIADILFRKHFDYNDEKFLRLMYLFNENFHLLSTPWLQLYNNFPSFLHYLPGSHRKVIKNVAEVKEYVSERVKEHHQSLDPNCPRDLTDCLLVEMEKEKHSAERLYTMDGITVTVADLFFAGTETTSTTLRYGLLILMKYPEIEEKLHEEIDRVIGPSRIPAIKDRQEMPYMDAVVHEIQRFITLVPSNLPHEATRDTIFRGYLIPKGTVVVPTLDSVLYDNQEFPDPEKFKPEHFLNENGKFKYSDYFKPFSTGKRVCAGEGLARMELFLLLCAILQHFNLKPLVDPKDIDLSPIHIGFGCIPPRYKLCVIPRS
Sequence of 5-hydroxytryptamine receptor 2B (P41595 whole entry): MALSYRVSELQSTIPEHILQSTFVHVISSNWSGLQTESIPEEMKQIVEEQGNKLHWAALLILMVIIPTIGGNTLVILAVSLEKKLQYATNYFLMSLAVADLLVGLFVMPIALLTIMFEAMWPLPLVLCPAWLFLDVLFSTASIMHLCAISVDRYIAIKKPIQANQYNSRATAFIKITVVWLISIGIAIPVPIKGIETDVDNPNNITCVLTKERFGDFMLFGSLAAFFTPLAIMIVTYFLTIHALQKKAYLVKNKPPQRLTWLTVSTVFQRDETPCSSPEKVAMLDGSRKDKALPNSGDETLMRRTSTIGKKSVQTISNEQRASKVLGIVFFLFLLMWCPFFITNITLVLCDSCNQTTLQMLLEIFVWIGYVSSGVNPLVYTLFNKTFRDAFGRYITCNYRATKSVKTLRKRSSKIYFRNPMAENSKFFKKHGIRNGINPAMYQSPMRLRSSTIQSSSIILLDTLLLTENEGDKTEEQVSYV
Sequence of D(1A) dopamine receptor (P21728 whole entry): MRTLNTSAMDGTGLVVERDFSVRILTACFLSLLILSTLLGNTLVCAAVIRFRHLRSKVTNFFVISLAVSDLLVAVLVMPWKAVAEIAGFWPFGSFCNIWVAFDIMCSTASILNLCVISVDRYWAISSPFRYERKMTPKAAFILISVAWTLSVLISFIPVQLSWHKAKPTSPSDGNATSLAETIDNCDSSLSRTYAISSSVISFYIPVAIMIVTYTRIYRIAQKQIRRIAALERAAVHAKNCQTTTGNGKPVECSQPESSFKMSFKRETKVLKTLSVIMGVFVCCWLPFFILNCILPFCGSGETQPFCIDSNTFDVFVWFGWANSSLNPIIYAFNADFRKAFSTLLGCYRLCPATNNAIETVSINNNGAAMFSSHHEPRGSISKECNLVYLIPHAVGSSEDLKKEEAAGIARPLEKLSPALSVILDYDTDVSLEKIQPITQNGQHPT
As to `C=C1C(=O)O[C@@H]2C3O[C@]3(C)CC/C=C(\C)CC[C@@H]12` (stereo not given in full), the IC50 result is recorded as “Not Active” and the Ki entry is listed as “Not Active”.

With `CCOC(=O)c1ccc(N)cc1` [BENZOCAINE], the IC50 result is reported as “Not Active” and the Ki entry is given as “Not Active”.

On to OXALIPLATIN, for which the IC50 result is recorded as “Not Active” and the Ki entry was “Not Active”.

Test system in another data set: not listed separately
As to the kind of experiment: DRUGMATRIX: Calcium Channel Type L, Benzothiazepine radioligand binding (ligand: [3H] Diltiazem). Type of data set: cell membranes, Rattus norvegicus, Wistar, Brain, Membrane. Particulars: Not Active = under 50% inhibition at 10 µM.
With `C=C1C(=O)O[C@@H]2C3O[C@]3(C)CC/C=C(\C)CC[C@@H]12` (stereo not given in full), the IC50 result is “Not Active” and the Ki result was “Not Active”.

Take `CCOC(=O)c1ccc(N)cc1` [BENZOCAINE]: the IC50 result was “Not Active” and the Ki entry is “Not Active”.

Regarding OXALIPLATIN, the IC50 result is “Not Active” and the Ki result is recorded as “Not Active”.

A further data set concerns the target D(1A) dopamine receptor (Homo sapiens, UniProt P21728). As to the kind of experiment: DRUGMATRIX: Dopamine D1 radioligand binding (ligand: [3H] SCH-23390). The class given is cell membranes, CHO, Membrane. Particulars: cho; Not Active = under 50% inhibition at 10 µM.
Regarding `C=C1C(=O)O[C@@H]2C3O[C@]3(C)CC/C=C(\C)CC[C@@H]12` (stereo not given in full), the IC50 entry is “Not Active”.

Turning to `CCOC(=O)c1ccc(N)cc1` [BENZOCAINE], the IC50 result was “Not Active”.

As to OXALIPLATIN, the IC50 entry is recorded as “Not Active” and the Ki result was “Not Active”.

A further data set has as its target Beta-3 adrenergic receptor (Homo sapiens, UniProt P13945). As to the kind of experiment: DRUGMATRIX: Adrenergic beta3 radioligand binding (ligand: [125I] Cyanopindolol). Type of data set: cell membranes, HEK293, Membrane. Particulars: hek293; Not Active = under 50% inhibition at 10 µM.
As to `C=C1C(=O)O[C@@H]2C3O[C@]3(C)CC/C=C(\C)CC[C@@H]12` (stereo not given in full), the IC50 result is “Not Active”.

Regarding `CCOC(=O)c1ccc(N)cc1` [BENZOCAINE], the IC50 result is recorded as “Not Active”.

As for OXALIPLATIN, the IC50 entry is recorded as “Not Active” and the Ki result is “Not Active”.

The target of another data set is 5-hydroxytryptamine receptor 6 (Homo sapiens, UniProt P50406). Note: in other assays of this panel Not Active means under 50% inhibition at 10 µM.
Sequence of 5-hydroxytryptamine receptor 6 (P50406 whole entry): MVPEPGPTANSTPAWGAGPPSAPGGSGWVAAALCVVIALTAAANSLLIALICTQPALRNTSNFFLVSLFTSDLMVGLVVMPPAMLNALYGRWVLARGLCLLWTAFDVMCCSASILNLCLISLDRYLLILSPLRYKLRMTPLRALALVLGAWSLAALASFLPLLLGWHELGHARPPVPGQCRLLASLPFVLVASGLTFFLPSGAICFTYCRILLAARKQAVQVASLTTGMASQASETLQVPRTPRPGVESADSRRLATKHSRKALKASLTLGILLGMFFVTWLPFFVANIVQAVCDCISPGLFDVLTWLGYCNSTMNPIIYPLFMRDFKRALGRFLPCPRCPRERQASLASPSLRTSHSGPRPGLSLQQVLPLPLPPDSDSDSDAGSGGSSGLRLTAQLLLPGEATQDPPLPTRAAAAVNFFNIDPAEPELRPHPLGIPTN
Test: not given
The class given is cell membranes, HeLa, Membrane. Particulars: hela.
For the compound `C=C1C(=O)O[C@@H]2C3O[C@]3(C)CC/C=C(\C)CC[C@@H]12` (stereo not given in full), the IC50 entry is “Not Active”.

In the case of `CCOC(=O)c1ccc(N)cc1` [BENZOCAINE], the IC50 result is given as “Not Active”.

With OXALIPLATIN, the IC50 entry was “Not Active” and the Ki entry is on record as “Not Active”.

The next data set deals with T1, Adenosine receptor A3 (Homo sapiens, UniProt P0DMS8).
T1 sequence (P0DMS8 whole entry): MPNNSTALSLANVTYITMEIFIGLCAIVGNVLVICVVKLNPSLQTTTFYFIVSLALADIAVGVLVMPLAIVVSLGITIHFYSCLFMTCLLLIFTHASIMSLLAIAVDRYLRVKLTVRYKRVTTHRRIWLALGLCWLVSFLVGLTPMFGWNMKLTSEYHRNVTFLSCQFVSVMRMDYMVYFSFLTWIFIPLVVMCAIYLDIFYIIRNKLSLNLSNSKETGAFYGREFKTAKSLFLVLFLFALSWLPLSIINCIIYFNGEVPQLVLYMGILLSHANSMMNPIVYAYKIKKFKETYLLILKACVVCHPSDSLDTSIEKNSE
Test: not given
Type of data set: cell membranes, CHO-K1, Membrane. Particulars: cho-k1.
`C=C1C(=O)O[C@@H]2C3O[C@]3(C)CC/C=C(\C)CC[C@@H]12` (stereo not given in full): the IC50 result was “Not Active”.

Consider `CCOC(=O)c1ccc(N)cc1` [BENZOCAINE], for which the IC50 entry is listed as “Not Active”.

Regarding OXALIPLATIN, the IC50 entry is given as “Not Active” and the Ki entry is recorded as “Not Active”.

The target of the next data set is T2, C-X-C chemokine receptor type 2 (Homo sapiens, UniProt P25025). Note: in other assays of this panel Not Active means under 50% inhibition at 10 µM.
T2 sequence (P25025 whole entry): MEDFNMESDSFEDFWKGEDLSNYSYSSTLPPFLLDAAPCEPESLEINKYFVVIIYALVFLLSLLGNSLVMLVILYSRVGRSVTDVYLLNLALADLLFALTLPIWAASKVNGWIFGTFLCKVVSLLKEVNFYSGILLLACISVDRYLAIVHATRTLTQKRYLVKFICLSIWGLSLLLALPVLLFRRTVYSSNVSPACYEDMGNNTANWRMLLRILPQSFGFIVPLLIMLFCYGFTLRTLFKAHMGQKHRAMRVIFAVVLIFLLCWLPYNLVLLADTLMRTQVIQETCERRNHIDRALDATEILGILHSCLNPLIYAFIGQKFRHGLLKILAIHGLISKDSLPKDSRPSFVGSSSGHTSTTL
Test: not given
The class given is cell membranes, Membrane. Particulars: cho-k1.
As to `C=C1C(=O)O[C@@H]2C3O[C@]3(C)CC/C=C(\C)CC[C@@H]12` (stereo not given in full), the IC50 result was “Not Active”.

In the case of `CCOC(=O)c1ccc(N)cc1` [BENZOCAINE], the IC50 entry is listed as “Not Active”.

On to OXALIPLATIN, for which the IC50 result is reported as “Not Active” and the Ki result is “Not Active”.

Test system in another data set: not listed separately
As to the kind of experiment: DRUGMATRIX: GABAA, Chloride Channel, TBOB radioligand binding (ligand: [3H] TBOB). The class given is cell membranes, Rattus norvegicus, Wistar, Cerebral cortex, Membrane. Particulars: Not Active = under 50% inhibition at 10 µM.
Turning to `C=C1C(=O)O[C@@H]2C3O[C@]3(C)CC/C=C(\C)CC[C@@H]12` (stereo not given in full), the IC50 entry is listed as “Not Active” and the Ki result is given as “Not Active”.

For the compound `CCOC(=O)c1ccc(N)cc1` [BENZOCAINE], the IC50 result was “Not Active” and the Ki result was “Not Active”.

Take OXALIPLATIN: the IC50 result is “Not Active” and the Ki entry is “Not Active”.

The next data set concerns the target 5-hydroxytryptamine receptor 2B (Homo sapiens, UniProt P41595). Note: in other assays of this panel Not Active means under 50% inhibition at 10 µM.
Test: not given
Particulars: cho-k1. The class given is cell membranes, CHO-K1, Membrane.
In the case of `C=C1C(=O)O[C@@H]2C3O[C@]3(C)CC/C=C(\C)CC[C@@H]12` (stereo not given in full), the IC50 entry is “Not Active”.

Take `CCOC(=O)c1ccc(N)cc1` [BENZOCAINE]: the IC50 result is “Not Active”.

As to OXALIPLATIN, the IC50 result is listed as “Not Active” and the Ki result is “Not Active”.

In a further data set the target is T3, Alpha-1B adrenergic receptor (Rattus norvegicus, UniProt P15823).
T3 sequence (P15823 whole entry): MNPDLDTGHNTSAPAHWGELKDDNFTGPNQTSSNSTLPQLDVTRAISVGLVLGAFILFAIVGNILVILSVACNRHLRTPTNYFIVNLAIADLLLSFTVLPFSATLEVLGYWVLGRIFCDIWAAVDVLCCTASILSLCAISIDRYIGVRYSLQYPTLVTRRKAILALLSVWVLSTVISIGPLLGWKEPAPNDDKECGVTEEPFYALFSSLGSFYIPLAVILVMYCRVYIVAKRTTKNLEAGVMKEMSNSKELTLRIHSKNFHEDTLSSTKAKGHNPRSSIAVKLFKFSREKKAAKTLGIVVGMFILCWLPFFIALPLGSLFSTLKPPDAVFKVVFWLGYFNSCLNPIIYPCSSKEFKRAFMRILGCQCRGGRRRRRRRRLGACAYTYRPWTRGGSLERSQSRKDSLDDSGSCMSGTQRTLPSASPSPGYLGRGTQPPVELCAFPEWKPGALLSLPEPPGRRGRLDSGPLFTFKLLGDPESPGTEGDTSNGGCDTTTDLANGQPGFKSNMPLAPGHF
As to the kind of experiment: DRUGMATRIX: Alpha-1B adrenergic receptor radioligand binding (ligand: prazosin). Type of data set: cell membranes, Wistar, Liver, Membrane. Particulars: Not Active = under 50% inhibition at 10 µM.
Regarding `C=C1C(=O)O[C@@H]2C3O[C@]3(C)CC/C=C(\C)CC[C@@H]12` (stereo not given in full), the IC50 entry is given as “Not Active”.

On to `CCOC(=O)c1ccc(N)cc1` [BENZOCAINE], for which the IC50 result is “Not Active”.

Take OXALIPLATIN: the IC50 result is given as “Not Active” and the Ki result is given as “Not Active”.

The target of another data set is Histamine H2 receptor (Homo sapiens, UniProt P25021). Note: in other assays of this panel Not Active means under 50% inhibition at 10 µM.
Sequence of Histamine H2 receptor (P25021 whole entry): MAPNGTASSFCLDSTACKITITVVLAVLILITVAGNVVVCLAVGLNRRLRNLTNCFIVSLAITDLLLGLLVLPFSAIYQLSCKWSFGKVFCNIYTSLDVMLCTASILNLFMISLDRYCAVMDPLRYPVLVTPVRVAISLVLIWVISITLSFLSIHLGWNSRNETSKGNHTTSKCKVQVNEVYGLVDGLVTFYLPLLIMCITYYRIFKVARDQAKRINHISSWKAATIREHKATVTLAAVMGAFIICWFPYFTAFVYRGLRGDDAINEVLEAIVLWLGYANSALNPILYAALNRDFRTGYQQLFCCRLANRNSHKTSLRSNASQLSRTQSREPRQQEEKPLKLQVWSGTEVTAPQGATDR
Test: not given
Particulars: cho-k1. The class given is cell membranes, CHO-K1, Membrane.
Turning to `C=C1C(=O)O[C@@H]2C3O[C@]3(C)CC/C=C(\C)CC[C@@H]12` (stereo not given in full), the IC50 entry was “Not Active”.

Consider `CCOC(=O)c1ccc(N)cc1` [BENZOCAINE], for which the IC50 result is “Not Active”.

Regarding OXALIPLATIN, the IC50 result is “Not Active” and the Ki result was “Not Active”.

Another data set addresses T4, Polyunsaturated fatty acid lipoxygenase ALOX15 (Oryctolagus cuniculus, UniProt P12530).
T4 sequence (P12530 whole entry): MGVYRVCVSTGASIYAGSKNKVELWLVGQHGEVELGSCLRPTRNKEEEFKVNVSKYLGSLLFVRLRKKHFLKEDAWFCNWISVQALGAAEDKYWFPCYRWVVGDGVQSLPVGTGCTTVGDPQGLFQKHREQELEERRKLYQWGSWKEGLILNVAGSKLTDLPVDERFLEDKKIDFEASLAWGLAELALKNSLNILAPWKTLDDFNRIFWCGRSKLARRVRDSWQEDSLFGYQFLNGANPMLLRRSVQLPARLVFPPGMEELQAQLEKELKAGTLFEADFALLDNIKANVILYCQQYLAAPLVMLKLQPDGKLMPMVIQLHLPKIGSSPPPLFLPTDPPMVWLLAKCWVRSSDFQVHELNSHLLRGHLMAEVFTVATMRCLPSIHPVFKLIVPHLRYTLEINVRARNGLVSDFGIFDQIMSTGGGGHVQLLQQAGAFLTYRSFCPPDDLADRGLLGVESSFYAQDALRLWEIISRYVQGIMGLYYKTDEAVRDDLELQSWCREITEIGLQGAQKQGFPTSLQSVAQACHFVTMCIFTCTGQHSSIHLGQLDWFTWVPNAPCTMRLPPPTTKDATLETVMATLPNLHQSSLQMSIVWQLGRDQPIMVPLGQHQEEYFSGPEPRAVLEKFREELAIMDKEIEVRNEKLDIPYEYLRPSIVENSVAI
The experiment in a line: biochemical. Particulars: reticulocytes. Type of data set: tissue-based, Reticulocytes.
For the compound `C=C1C(=O)O[C@@H]2C3O[C@]3(C)CC/C=C(\C)CC[C@@H]12` (stereo not given in full), the IC50 result is listed as “Not Active”.

For the compound `CCOC(=O)c1ccc(N)cc1` [BENZOCAINE], the IC50 entry is reported as “Not Active”.

For the compound OXALIPLATIN, the IC50 result is recorded as “Not Active” and the Ki result is reported as “Not Active”.

Another data set concerns the target Cytochrome P450 2E1 (Homo sapiens, UniProt P05181). Note: in other assays of this panel Not Active means under 50% inhibition at 10 µM.
Test: not given
Particulars: bti-tn-5b1-4.
On to `C=C1C(=O)O[C@@H]2C3O[C@]3(C)CC/C=C(\C)CC[C@@H]12` (stereo not given in full), for which the IC50 result is listed as “Not Active” and the Ki entry is “Not Active”.

Take `CCOC(=O)c1ccc(N)cc1` [BENZOCAINE]: the IC50 result is reported as “Not Active” and the Ki result was “Not Active”.

As to OXALIPLATIN, the IC50 entry is “Not Active” and the Ki entry is on record as “Not Active”.

(Values after ChEMBL document CHEMBL1909046, “DrugMatrix in vitro pharmacology data”.)
